Like-named read-outs stand apart in the source and are kept apart here.

One assay addresses T1, EGFR(L858R/T790M) (Homo sapiens, UniProt P00533, L858R/T790M).
T1 construct: purchased from Carna (GST-a.a. 669-1210)
In words: EGFR biochemical assay (HTRF), IC50 determinations. In outline: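 HTRF kinase reaction with biotin-TK peptide at room temperature, quenched with EDTA at 60 min and detected with PT66K/SAXL after 1 h. Without preincubation, enzyme starts the reaction with compound, ATP and peptide present. With preincubation, compound, enzyme and peptide sit at room temperature for a set time before ATP is added.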

For a further assay, the target named is H3255 (EGFR L858R) (Homo sapiens, UniProt P00533, L858R). The assay is described as follows: EGFR target modulation in H3255 cell line (phospho-EGFR Y1173 ELISA). Type of assay: cell-based. In outline: (§1)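 Cells grown in 10% FBS/RPMI, plated overnight at 37 °C, then treated with serially diluted compounds for 3 h. Lysates were analysed by sandwich ELISA (anti-EGFR capture, chemiluminescent readout).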
Chain of H3255 (EGFR L858R) (P00533 25-1210 L858R): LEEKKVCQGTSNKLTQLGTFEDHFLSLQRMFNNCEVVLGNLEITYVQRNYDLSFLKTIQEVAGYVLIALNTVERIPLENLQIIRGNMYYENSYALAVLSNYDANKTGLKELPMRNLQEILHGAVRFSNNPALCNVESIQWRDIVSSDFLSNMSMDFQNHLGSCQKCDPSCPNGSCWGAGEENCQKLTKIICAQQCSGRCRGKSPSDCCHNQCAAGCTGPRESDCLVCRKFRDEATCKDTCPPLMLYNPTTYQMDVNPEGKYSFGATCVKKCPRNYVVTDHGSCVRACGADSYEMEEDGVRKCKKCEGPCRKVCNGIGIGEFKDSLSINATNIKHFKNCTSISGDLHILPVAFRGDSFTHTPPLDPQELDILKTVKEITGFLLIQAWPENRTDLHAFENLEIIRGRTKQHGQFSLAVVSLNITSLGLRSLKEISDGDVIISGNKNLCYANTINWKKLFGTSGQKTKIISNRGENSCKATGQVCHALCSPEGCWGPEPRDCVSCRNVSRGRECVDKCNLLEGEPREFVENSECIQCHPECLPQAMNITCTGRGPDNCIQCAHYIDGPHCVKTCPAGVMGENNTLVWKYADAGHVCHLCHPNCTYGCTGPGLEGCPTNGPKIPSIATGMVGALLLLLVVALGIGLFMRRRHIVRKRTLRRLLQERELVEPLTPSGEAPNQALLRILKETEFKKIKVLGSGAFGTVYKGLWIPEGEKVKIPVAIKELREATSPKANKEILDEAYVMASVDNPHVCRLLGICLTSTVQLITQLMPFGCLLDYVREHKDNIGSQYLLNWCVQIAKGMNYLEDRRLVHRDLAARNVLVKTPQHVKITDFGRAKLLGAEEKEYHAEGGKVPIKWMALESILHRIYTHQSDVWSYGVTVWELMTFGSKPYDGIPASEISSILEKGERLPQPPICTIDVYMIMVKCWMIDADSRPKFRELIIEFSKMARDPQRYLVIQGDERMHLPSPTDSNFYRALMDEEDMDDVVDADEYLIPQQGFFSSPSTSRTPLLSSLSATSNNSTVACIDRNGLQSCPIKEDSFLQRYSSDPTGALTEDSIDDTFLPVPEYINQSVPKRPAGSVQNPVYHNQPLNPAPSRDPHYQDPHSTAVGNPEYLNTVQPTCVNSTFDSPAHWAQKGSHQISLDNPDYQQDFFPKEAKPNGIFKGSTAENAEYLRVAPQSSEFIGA

In another assay the target is HCC827 (Del E746-A750) (Homo sapiens, UniProt P00533, DEL746-750). In words: EGFR target modulation in HCC827 cell line (phospho-EGFR Y1173 ELISA). The format is cell-based. A digest of the protocol:
as §1

A further assay concerns the target HEKn (EGFR WT) (Homo sapiens, UniProt P00533). The assay is described as follows: EGFR target modulation in HEKn (EGFR-WT) cell line (phospho-EGFR Y1173 ELISA). Type of assay: cell-based. To be noted: value outside parentheses. In outline:
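Primary neonatal human keratinocytes (EGFR WT) were exposed to serially diluted compounds for 3 h, then lysed on ice. Phospho-EGFR Y1173 was measured by chemiluminescent sandwich ELISA using anti-EGFR capture.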

Another assay deals with HaCaT (EGFR WT) (Homo sapiens, UniProt P00533). In words: EGFR target modulation in HaCaT (EGFR-WT) cell line (phospho-EGFR Y1173 ELISA). Type of assay: cell-based. The note with it: value in parentheses. In outline:
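HaCaT cells were treated with compound for 3 h and stimulated with EGF. Lysates (20 min on ice) were captured overnight at 4 °C on anti-EGFR-coated plates, and phospho-EGFR was detected by HRP chemiluminescence.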

Where [1] appears, read: EGFR (L858R/T790M) with 90 min pre-incubation, read-out: IC50 (μM) Column B.
[2] abbreviates: EGFR (L858R/T790M) with no pre-incubation, read-out: IC50 (μM) Column A.

Chain of HEKn (EGFR WT) (P00533 25-1210): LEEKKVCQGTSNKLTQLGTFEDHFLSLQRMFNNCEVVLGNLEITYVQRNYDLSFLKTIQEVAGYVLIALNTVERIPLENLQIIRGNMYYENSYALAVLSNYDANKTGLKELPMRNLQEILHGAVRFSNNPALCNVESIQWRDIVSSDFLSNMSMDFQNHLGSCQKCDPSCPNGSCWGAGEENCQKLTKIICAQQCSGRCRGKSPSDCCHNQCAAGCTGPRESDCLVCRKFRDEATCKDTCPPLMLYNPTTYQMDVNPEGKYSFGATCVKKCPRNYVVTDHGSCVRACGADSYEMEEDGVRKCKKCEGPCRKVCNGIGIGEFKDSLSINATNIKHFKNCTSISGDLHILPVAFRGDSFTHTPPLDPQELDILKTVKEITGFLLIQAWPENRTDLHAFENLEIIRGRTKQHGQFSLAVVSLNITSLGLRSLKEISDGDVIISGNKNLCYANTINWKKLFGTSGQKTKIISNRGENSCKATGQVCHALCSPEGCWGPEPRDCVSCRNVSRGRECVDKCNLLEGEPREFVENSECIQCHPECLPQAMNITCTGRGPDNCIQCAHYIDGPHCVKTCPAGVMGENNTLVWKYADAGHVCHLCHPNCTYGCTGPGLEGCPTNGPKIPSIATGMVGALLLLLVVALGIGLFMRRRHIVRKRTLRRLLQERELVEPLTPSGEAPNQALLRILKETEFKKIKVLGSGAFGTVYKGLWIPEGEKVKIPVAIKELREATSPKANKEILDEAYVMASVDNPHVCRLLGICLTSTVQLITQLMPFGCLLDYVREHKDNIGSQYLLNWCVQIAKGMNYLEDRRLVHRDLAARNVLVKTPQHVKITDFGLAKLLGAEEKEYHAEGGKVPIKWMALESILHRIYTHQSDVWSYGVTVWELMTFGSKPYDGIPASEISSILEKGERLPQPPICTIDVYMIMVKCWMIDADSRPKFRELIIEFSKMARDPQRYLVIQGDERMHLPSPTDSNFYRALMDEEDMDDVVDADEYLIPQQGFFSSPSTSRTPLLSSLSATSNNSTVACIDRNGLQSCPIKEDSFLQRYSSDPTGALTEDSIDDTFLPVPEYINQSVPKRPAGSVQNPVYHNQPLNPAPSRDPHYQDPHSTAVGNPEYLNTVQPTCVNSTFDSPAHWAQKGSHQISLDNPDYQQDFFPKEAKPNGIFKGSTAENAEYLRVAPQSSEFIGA
Chain of HaCaT (EGFR WT) (P00533 25-1210): as above
T1 sequence (P00533 669-1210 T790M/L858R): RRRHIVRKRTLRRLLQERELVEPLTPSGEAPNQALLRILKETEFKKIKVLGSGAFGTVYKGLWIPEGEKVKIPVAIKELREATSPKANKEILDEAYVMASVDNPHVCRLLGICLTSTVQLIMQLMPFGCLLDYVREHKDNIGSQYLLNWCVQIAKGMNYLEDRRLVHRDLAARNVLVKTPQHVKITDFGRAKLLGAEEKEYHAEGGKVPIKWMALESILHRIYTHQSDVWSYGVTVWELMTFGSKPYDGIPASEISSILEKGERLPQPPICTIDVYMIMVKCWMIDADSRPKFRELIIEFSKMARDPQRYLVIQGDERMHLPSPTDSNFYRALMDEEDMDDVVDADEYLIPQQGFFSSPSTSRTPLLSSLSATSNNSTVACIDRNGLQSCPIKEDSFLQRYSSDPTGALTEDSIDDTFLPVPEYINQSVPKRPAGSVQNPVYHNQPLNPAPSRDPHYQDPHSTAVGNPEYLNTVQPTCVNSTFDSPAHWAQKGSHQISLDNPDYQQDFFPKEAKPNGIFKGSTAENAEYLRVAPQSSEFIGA

Regarding `C=CC(=O)N1CCCC[C@@H](n2c(NC(=O)c3ccnc(C)c3)nc3cc(CN4CC[C@@H](OC)C4)cc(C)c32)C1` [Example 17-150], the IC50 at EGFR(L858R/T790M) (setting [1]) is under 0.001 µM; at EGFR(L858R/T790M) (setting [2]), 0.003 µM; at H3255 (EGFR L858R), 3 nM; on HCC827 (Del E746-A750), under 1 nM; at HEKn (EGFR WT), 129 nM; at HaCaT (EGFR WT), 59 nM.

As for `C=CC(=O)N1CCCC[C@@H](n2c(NC(=O)c3ccnc(C)c3)nc3cc(CN4CC[C@H](F)C4)cc(C)c32)C1` [Example 17-147], the IC50 at EGFR(L858R/T790M) (setting [1]) was under 0.001 µM; at EGFR(L858R/T790M) (setting [2]), 0.002 µM; against H3255 (EGFR L858R), 2 nM; on HCC827 (Del E746-A750), under 1 nM; at HEKn (EGFR WT), 79 nM; on HaCaT (EGFR WT), 44 nM.

Consider `C=CC(=O)N1CCCC[C@@H](n2c(NC(=O)c3ccnc(C)c3)nc3cc(CN4CC[C@@H](F)C4)cc(C)c32)C1` [Example 17-148], for which the 50% inhibitory concentration (IC50) on EGFR(L858R/T790M) (setting [1]) is under 0.001 µM; on EGFR(L858R/T790M) (setting [2]), 0.002 µM; against H3255 (EGFR L858R), 2 nM; against HCC827 (Del E746-A750), under 1 nM; on HEKn (EGFR WT), 77 nM; at HaCaT (EGFR WT), 52 nM.

`C=CC(=O)N1CCCC[C@@H](n2c(NC(=O)c3ccnc(C)c3)nc3cc(CN4CC[C@H](OC)C4)cc(C)c32)C1` [Example 17-149]: the IC50 was under 0.001 µM on EGFR(L858R/T790M) (setting [1]); 0.002 µM at EGFR(L858R/T790M) (setting [2]); 2 nM at H3255 (EGFR L858R); under 1 nM at HCC827 (Del E746-A750); 76 nM on HEKn (EGFR WT); 48 nM at HaCaT (EGFR WT).

With `C=CC(=O)N1CCCC[C@@H](n2c(NC(=O)c3ccnc(C)c3)nc3cc(CN4CC(OC)C4)cc(C)c32)C1` [Example 17-154], the IC50 was under 0.001 µM at EGFR(L858R/T790M) (setting [1]); 0.002 µM at EGFR(L858R/T790M) (setting [2]); 2 nM against H3255 (EGFR L858R); under 1 nM against HCC827 (Del E746-A750); 79 nM on HEKn (EGFR WT); 38 nM at HaCaT (EGFR WT).

As to `C=CC(=O)N1CCCC[C@@H](n2c(NC(=O)c3ccnc(C)c3)nc3cc(CN4CC(F)C4)cc(C)c32)C1` [Example 17-152], the IC50 on EGFR(L858R/T790M) (setting [1]) is under 0.001 µM; on EGFR(L858R/T790M) (setting [2]), 0.002 µM; at H3255 (EGFR L858R), 2 nM; on HCC827 (Del E746-A750) it was under 1 nM; on HEKn (EGFR WT) it was 112 nM; at HaCaT (EGFR WT), 46 nM.

The values above are taken from patent publication US9440957B2, “Compounds and compositions for modulating EGFR Activity” (Novartis AG, priority 2012, dated 2016).
